Tests used:
[1] = system: Carbonic anhydrase (Oryctolagus cuniculus); test: Ex vivo inhibition of carbonic anhydrase in homogenate of rabbit iris-ciliary body; expressed as volume/minute of 0.025 N NaOH required to maintain pH of assay mixture at 0.05 mg
[2] = system: Carbonic anhydrase (Oryctolagus cuniculus); test: Ex vivo inhibition of carbonic anhydrase in homogenate of rabbit iris-ciliary body; expressed as volume/minute of 0.025 N NaOH required to maintain pH of assay mixture at 0.25 mg
[3] = system: Carbonic anhydrase (Oryctolagus cuniculus); test: Inhibition of carbonic anhydrase activity in a homogenate of rabbit iris-ciliary body at a dose of 0.25 mg (ex vivo)
Carbonic anhydrase 2 = Carbonic anhydrase 2 (Homo sapiens, UniProt P00918)
Description: In vitro inhibition of purified human erythrocyte carbonic anhydrase II

[4] = system: Carbonic anhydrase (Oryctolagus cuniculus); test: Inhibition of carbonic anhydrase activity in a homogenate of rabbit iris-ciliary body at a dose of 0.05 mg (ex vivo)
[5] = Equilibrium dissociation constant of CA complex for enantiomer 2 of compound; assay type: ADME
[6] = Equilibrium dissociation constant of CA complex for enantiomer 1 of compound; assay type: ADME
Carbonic anhydrase = assay type: protein assay, Canis lupus familiaris
Description: In vitro inhibition of crude dog red blood cell carbonic anhydrase

[7] = Equilibrium dissociation constant was determined; assay type: ADME

Description for physchem: Acid dissociation constant was determined

Compound	pKa (physchem)	IC50 (Carbonic anhydrase 2) [µM]	other results
NS(=O)(=O)CSCCCc1ccccc1	9.4	1.2	
NS(=O)(=O)CS(=O)(=O)c1ccc(O)cc1	9.1	0.4	
NS(=O)(=O)CSc1ccc(O)cc1	10.1	2.9	
NS(=O)(=O)CS(=O)(=O)CCc1ccccc1	8.4	0.1	
CCS(N)(=O)=O [ETHANESULFONIC ACID AMIDE]			IC50 (Carbonic anhydrase): 1000 µM
NS(=O)(=O)CSCCc1ccccc1	9.5	2	
COc1ccc2c(c1)S(=O)(=O)C(S(N)(=O)=O)C2 (stereo not drawn)	8.8	0.8	

The next lines start with results.

pKa (physchem)	IC50 (Carbonic anhydrase 2) [µM]	Compound	other results
7.5	0.003	CCCCCCCCS(=O)(=O)C(F)S(N)(=O)=O (stereo not drawn)	CA activity ((ml of NaOH) min-1) [1]: 0.147; CA activity ((ml of NaOH) min-1) [2]: 0.043; inhibition [3]: 91%; inhibition [4]: 71%; Kd [5]: 0.00064 µM; Kd [6]: 0.00357 µM
9.4	0.022	CCCCCCCCS(=O)(=O)CS(N)(=O)=O	
	1.3	COCCOCCOCS(=O)(=O)CS(N)(=O)=O	
8.4	0.19	NS(=O)(=O)CS(=O)(=O)CCCc1ccccc1	
	0.2	CCCCCCCCS(=O)(=O)C(Cl)(Cl)S(N)(=O)=O	
7.7	0.012	CCCCCCCCS(=O)(=O)C(Cl)S(N)(=O)=O (stereo not drawn)	Kd [7]: 0.017 µM
8.9	2.5	CCCCCCCCS(=O)(=O)C(C)S(N)(=O)=O (stereo not drawn)	
	0.48	CCCCCCCCSCS(N)(=O)=O	
